Data on one molecule can be found in patent EP0335637A2, “Nerve growth factor peptides” (THE REGENTS OF THE UNIVERSITY OF CALIFORNIA, priority 1988, dated 1989).

Data set [1] relates to embryologic day 10 dorsal root ganglia neurons. Nature of the data set: NGF-independent neurite outgrowth in response to CNTF (nonspecific toxicity check). It counts as cell-based, chick. As to conditions: C5 up to 2.6p moles/ml (Figure 3). The method, then: Potential nonspecific toxicity of peptide C5 (KGKE) was investigated with embryologic day 10 dorsal root ganglia neurons which also extend neurites in the presence of ciliary neurotrophic factor (CNTF). The effect of peptide C5 on NGF-independent neurite outgrowth was assessed.

Data set [2] is described as follows: Resistance to proteolysis during cell culture (HPLC recovery). The data set is classed as in vitro ADME. The settings on record: after 24 hr in culture; 2.0 µmole/ml peptide, 100 pg/ml NGF and cells. The protocol:
The resistance of peptide C5 to proteolytic cleavage during cell culture was assessed. Quadruplicate wells were prepared each containing 2.Oµ mole/ml of peptide in culture medium, 100 pg/ml NGF and cells as described above. After 24 hr in culture, 320 ul (4 wells x 80 ul) of culture medium were collected. Fresh culture medium containing 2.0 µmole/ml of peptide was also prepared. Both samples of peptide-containing medium were filtered through a Centricon membrane (Amicon, Bedford) with a molecular weight cutoff of 10,000. 250 µl of filtrate was loaded onto a C18 uBondapak analytic HPLC column and run under the same conditions described above for peptide purification. The quantity of peptides in fresh compared to post-culture medium was determined by integration of their absorbance peaks. After 24 hr in culture, more than 80-85% of the initial quantity of peptide C5 was recovered.

Where a SMILES comes first, the peptide text is derived from it.

Regarding `NCCCC[C@H](NC(=O)CNC(=O)[C@@H](N)CCCCN)C(=O)N[C@@H](CCC(=O)O)C(N)=O` [C5, KGKE] (H-KGKE-NH2), the “effect on number of neurons bearing neurites in response to CNTF” value in data set [1] is “no detectable effect”. Besides, the “initial quantity of peptide recovered” value in data set [2] was 80-85%.
